Data set [1] has as its system model arrhythmias. The experiment in a line: Tests with animals having model arrhythmias (known compounds). It is filed as in vivo. As to conditions: average (1-3 mg/kg) intravenous doses.
In data set [2] the test system is CHCl3-adrenalin-model arrhythmia. The experiment in a line: animal or person. Format: in vivo, dog. The procedure: The antiarrhythmic effect of the compound of formula I was tested in dogs according to the method of Hapke and Prigge, Arzneim.-Forsch. (Drug Res.), loc. cit. A model arrhythmia which was essentially characterized by ventricular extrasystoles at absolute arrhythmia was produced by infusion of chloroform and adrenalin (epinephrine). At the onset of these rhythm disorders the inventive compound was injected intravenously as aqueous solution of the hydrochloride.
. […] (Drug Res.), loc. cit.

Data set [3] in a line: LD50 acute toxicity in dog. To be noted: in vivo, iv; dog i.v.
The subject of data set [4] is rhythm disorders produced by occlusion of a branch of the coronary vessels. Put plainly: Antiarrhythmic effect after oral administration, rhythm disorders by occlusion of a branch of the coronary vessels in dogs. It is filed as in vivo, dog. As to conditions: 10 mg/kg intragastric. The procedure: Again in dogs, the excellent antiarrhythmic effect could be observed after oral administration too. Rhythm disorders were produced by occlusion of a branch of the coronary vessels. The inventive compound was administered intragastrically in the form of the hydrochloride the next day.

A further data set has as its system circulation parameters. Put plainly: Circulation parameters in dogs (method of Hapke and Prigge). As to conditions: for Diastolic blood pressure (A. femoralis) / Heart beat rate change / Systolic blood pressure (A. femoralis) / Coronary flow volume / Left ventricular peak pressure / Maximum rate of pressure rise (dp/dt) / Peripheral blood flow volume (A. femoralis): dog.

Data set [5] has as its system model arrhythmias. As to conditions: cited from earlier work; for dose at which antiarrhythmic effect appeared: dogs, cats and rabbits.
A further data set deals with heart rate disorders. To be noted: human medicine; cited from earlier work.

Where a name gives a salt, the structure may show the parent alone. Read-outs that look alike come from different tables or passages of the source.

From the text for circulation parameters: For the test method see H. J. Hapke and E. Prigge, Arzneim.-Forsch.

For the compound `CCC(C)NCC(O)COc1ccccc1C(=O)CCc1ccccc1` (stereo not drawn) [1-methylpropylamino], the antiarrhythmic effect result in the data set on model arrhythmias [1] is recorded as “practically no antiarrhythmic effect”.
Regarding `CCC(C)(C)NCC(O)COc1ccccc1C(=O)CCc1ccccc1` (stereo not drawn) [diprafenone, 2-[2'-hydroxy-3'-(1,1-dimethylpropylamino)-propoxy]-β-phenylpropiophenone], in data set [2] (Canis lupus familiaris, intravenous, model arrhythmias, read-out: dose showing an antiarrhythmic effect), the minimal effective dose came out at 0.05 mg/kg. The “increase of therapeutic quotient as compared to propafenone” value in data set [2] (dog, in vivo) is on record as 10-20 times.
A word on the LD50: it is the dose expected to kill half of the subjects tested. Regarding `CCC(C)(C)NCC(O)COc1ccccc1C(=O)CCc1ccccc1` (stereo not drawn) [diprafenone-HCl, 2-[2'-hydroxy-3'-(1,1-dimethylpropylamino)-propoxy]-β-phenylpropiophenone-hydrochloride], the LD50 in data set [3] worked out at 10 mg/kg. Further, the “time to full antiarrhythmic effect” value in data set [2] (dogs, 0.05 mg/kg i.v.) is not above 45 s. The “antiarrhythmic effect (sinus rhythm in ECG became normal)” value in data set [2] (dogs, 0.05 mg/kg i.v., all dogs treated) is reported as “fully effective”. For the same compound, the extrasystoles result in data set [4] (30 minutes after application) is recorded as “no extrasystoles could be observed”. Also, in data set [4] (for 10 minutes after application), the extrasystoles result is on record as “observed unchanged”. The ECG result in data set [4] (for the 24 hours observed) was “remained normal”. Further, the “effect on peripheral and coronary circulation” value in the data set on circulation parameters (comparable doses) is “does not have an effect on the peripheral and coronary circulation”. In the data set with circulation parameters (0.5 mg/kg i.v.), the “Diastolic blood pressure (A. femoralis)” value is reported as -16 mm Hg, the “Heart beat rate change” value is -8 min⁻¹ and the “Systolic blood pressure (A. femoralis)” value was -13 mm Hg. Further, in the data set with circulation parameters (1.0 mg/kg i.v.), the “Diastolic blood pressure (A. femoralis)” value is on record as -24 mm Hg, the “Heart beat rate change” value was -22 min⁻¹ and the “Systolic blood pressure (A. femoralis)” value was -17 mm Hg. Also, in the data set with circulation parameters (3.0 mg/kg i.v.), the Coronary flow volume result is reported as “+56%”, the “Diastolic blood pressure (A. femoralis)” value is listed as -39 mm Hg, the “Heart beat rate change” value is -24 min⁻¹ and the “Left ventricular peak pressure” value is reported as -46 mm Hg. Moreover, in the data set with circulation parameters (3.0 mg/kg i.v.), the “Maximum rate of pressure rise (dp/dt)” value is given as -30% and the “Systolic blood pressure (A. femoralis)” value is reported as -45 mm Hg. The heart beat rate entry in the data set with circulation parameters (doses of 0.5 mg/kg i.v., contrary to propafenone) is given as “reduction of the heart beat rate”.
For `CCCCNCC(O)COc1ccccc1C(=O)CCc1ccccc1` (stereo not drawn) [n-butylamino], in the data set on model arrhythmias [1], the antiarrhythmic effect entry is listed as “practically no antiarrhythmic effect”.
With `CCCNCC(O)COc1ccccc1C(=O)CCc1ccccc1` (stereo not drawn) [propafenone-HCl], in the data set with circulation parameters (1.0 mg/kg i.v.), the Coronary flow volume result is “+14%”, the “Left ventricular peak pressure” value is given as -5 mm Hg and the “Peripheral blood flow volume (A. femoralis)” value is given as “+10%”. Further, in the data set on circulation parameters (3.0 mg/kg i.v.), the Coronary flow volume entry is on record as “+30%”, the “Diastolic blood pressure (A. femoralis)” value is reported as -40 mm Hg, the “Left ventricular peak pressure” value is -25 mm Hg and the “Maximum rate of pressure rise (dp/dt)” value is on record as -29%. For the same compound, in the data set with circulation parameters (3.0 mg/kg i.v.), the “Peripheral blood flow volume (A. femoralis)” value is listed as “+36%” and the “Systolic blood pressure (A. femoralis)” value was -30 mm Hg. For the same compound, in the data set with circulation parameters (5.0 mg/kg i.v.), the Coronary flow volume result is recorded as “+43%”, the “Left ventricular peak pressure” value is -42 mm Hg and the “Maximum rate of pressure rise (dp/dt)” value is listed as -47%. Besides, in the data set on circulation parameters (10.0 mg/kg i.v.), the Coronary flow volume result is “+67%”, the “Diastolic blood pressure (A. femoralis)” value is given as -60 mm Hg, the “Left ventricular peak pressure” value is -70 mm Hg and the “Maximum rate of pressure rise (dp/dt)” value is listed as -62%. Also, in the data set with circulation parameters (10.0 mg/kg i.v.), the “Systolic blood pressure (A. femoralis)” value is recorded as -65 mm Hg.
Take `CCCNCC(O)COc1ccccc1C(=O)CCc1ccccc1` (stereo not drawn) [propafenone]: the hemodynamic effect entry with model arrhythmias [5] (average (1-3 mg/kg) and higher (5 mg/kg) intravenous doses) is “hypotensive, negative inotropic effect and dilates the coronary arteries”. In addition, the “dose at which antiarrhythmic effect appeared” value was 1 mg/kg in the data set on model arrhythmias [5] (intravenous) and 2 to 10 mg/kg with model arrhythmias [5] (oral). Also, in the data set on model arrhythmias [5] (doses producing an antiarrhythmic effect), the heart rate result is recorded as “not substantially affected”. Besides, in the data set on model arrhythmias [5] (only one of the compounds of German Pat. No. 2 001 431), the antiarrhythmic effect result is reported as “shows an antiarrhythmic effect”. The “effect in therapy of heart rate disorders” value with heart rate disorders was “antiarrhythmic with local anaesthetic, quinidine-like and also β-receptor blocking effect”.
Regarding `CC(C)(C)NCC(O)COc1ccccc1C(=O)CCc1ccccc1` (stereo not drawn) [tert-butylamino], in the data set on model arrhythmias [1], the antiarrhythmic effect entry is recorded as “practically no antiarrhythmic effect”.

Values taken from patent US4460605A, “2-[2'-Hydroxy-3'-(1,1-dimethylpropylamino)-propoxy ]-β-phenylpropiophenone, its physiologically acceptable acid addition salts, and pharmaceutical compositions” (Helopharm W. Petrik & Co., priority 1981, dated 1984).
